Measured values taken from PubChem BioAssay AID1919004 (Molecular Pharmacology Branch, DTP, NCI, 2023).
Values joined by “and” are separate entries in the source; they are usually repeats but may differ in a detail not shown here. Identical values can stand only once.

System: 883617-216-R-J1-PDC complex spheroids, growth, % test/control
Experiment: Anticancer human tumor 883617-216-R-J1-PDC patient-derived bladder carcinoma cell line growth inhibition [AhR]
Conditions: for viability, T/C: stronger effect = lower value
Summary of the method: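 Spheroids combined tumor cells with HUVEC endothelial cells and human MSCs as stroma. AhR antagonists were paired with standard or investigational drugs, each dosed in half-log steps down from near clinical Cmax, or from 10 microM where Cmax was unknown.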

[1] = curve of first compound, second compound 0.1 µM
[2] = curve of first compound, second compound 0.316 µM
[3] = curve of first compound, second compound 1 µM
[4] = curve of first compound, second compound 3.16 µM
[5] = curve of first compound, second compound 10 µM
[6] = second compound 0.1 µM, first compound 0.0316 µM
[7] = second compound 0.1 µM, first compound 0.1 µM
[8] = second compound 0.1 µM, first compound 0.316 µM
[9] = second compound 0.1 µM, first compound 1 µM
[10] = second compound 0.1 µM, first compound 3.16 µM
[11] = second compound 0.1 µM, first compound 10 µM
[12] = second compound 0.316 µM, first compound 0.0316 µM
[13] = second compound 0.316 µM, first compound 0.1 µM
[14] = second compound 0.316 µM, first compound 0.316 µM
[15] = second compound 0.316 µM, first compound 1 µM
[16] = second compound 0.316 µM, first compound 3.16 µM
[17] = second compound 0.316 µM, first compound 10 µM
[18] = second compound 1 µM, first compound 0.0316 µM
[19] = second compound 1 µM, first compound 0.1 µM
[20] = second compound 1 µM, first compound 0.316 µM
[21] = second compound 1 µM, first compound 1 µM
[22] = second compound 1 µM, first compound 3.16 µM
[23] = second compound 1 µM, first compound 10 µM
[24] = second compound 3.16 µM, first compound 0.0316 µM
[25] = second compound 3.16 µM, first compound 0.1 µM
[26] = second compound 3.16 µM, first compound 0.316 µM
[27] = second compound 3.16 µM, first compound 1 µM
[28] = second compound 3.16 µM, first compound 3.16 µM
[29] = second compound 3.16 µM, first compound 10 µM
[30] = second compound 10 µM, first compound 0.0316 µM
[31] = second compound 10 µM, first compound 0.1 µM
[32] = second compound 10 µM, first compound 0.316 µM
[33] = second compound 10 µM, first compound 1 µM
[34] = second compound 10 µM, first compound 3.16 µM
[35] = second compound 10 µM, first compound 10 µM
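Also: exposure lasted 7 days after dosing on day 3 of spheroid growth.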

## CC(C)c1c(-c2ccccc2)nc2c(C#N)c[nH]n2c1=O + Cc1cncc(-c2nc(NCCc3c[nH]c4ccccc34)c3ncn(C(C)C)c3n2)c1
[1]
  IC50: > 10 µM
[2]
  IC50: > 10 µM
[3]
  IC50: > 10 µM
[4]
  IC50: > 10 µM
[5]
  IC50: 0.0681 µM
[6]
  viability, T/C: 98.7%
[7]
  viability, T/C: 93.8%
[8]
  viability, T/C: 99.3%
[9]
  viability, T/C: 99.7%
[10]
  viability, T/C: 92.6%
[11]
  viability, T/C: 91.7%
[12]
  viability, T/C: 107%
[13]
  viability, T/C: 91.8%
[14]
  viability, T/C: 93%
[15]
  viability, T/C: 97.6%
[16]
  viability, T/C: 103%
[17]
  viability, T/C: 94%
[18]
  viability, T/C: 96.6%
[19]
  viability, T/C: 114%
[20]
  viability, T/C: 107%
[21]
  viability, T/C: 104%
[22]
  viability, T/C: 102%
[23]
  viability, T/C: 111%
[24]
  viability, T/C: 105%
[25]
  viability, T/C: 109%
[26]
  viability, T/C: 115%
[27]
  viability, T/C: 105%
[28]
  viability, T/C: 111%
[29]
  viability, T/C: 121%
[30]
  viability, T/C: 53.4%
[31]
  viability, T/C: 48.5%
[32]
  viability, T/C: 48.4%
[33]
  viability, T/C: 41.7%
[34]
  viability, T/C: 43.5%
[35]
  viability, T/C: 55.4%

## COc1cccc2c1C(=O)c1c(O)c3c(c(O)c1C2=O)CC(O)(C(=O)CO)CC3OC1CC(N)C(O)C(C)O1 (configuration not stated) + Cc1cncc(-c2nc(NCCc3c[nH]c4ccccc34)c3ncn(C(C)C)c3n2)c1
[1]
  IC50: 0.393 µM
[2]
  IC50: 0.437 µM
[3]
  IC50: 0.404 µM
[4]
  IC50: 0.4 µM
[5]
  IC50: < 0.0316 µM
[6]
  viability, T/C: 74.5%
[7]
  viability, T/C: 66.3%
[8]
  viability, T/C: 57.9%
[9]
  viability, T/C: 18.8%
[10]
  viability, T/C: 0.11%
[11]
  viability, T/C: 0.16%
[12]
  viability, T/C: 65.3%
[13]
  viability, T/C: 62.6%
[14]
  viability, T/C: 64.4%
[15]
  viability, T/C: 14%
[16]
  viability, T/C: 0.05%
[17]
  viability, T/C: 0.15%
[18]
  viability, T/C: 81.8%
[19]
  viability, T/C: 74.5%
[20]
  viability, T/C: 62.1%
[21]
  viability, T/C: 5.5%
[22]
  viability, T/C: 0.05%
[23]
  viability, T/C: 1.21%
[24]
  viability, T/C: 77.1%
[25]
  viability, T/C: 75%
[26]
  viability, T/C: 62.7%
[27]
  viability, T/C: 0.89%
[28]
  viability, T/C: 0.17%
[29]
  viability, T/C: 1.17%
[30]
  viability, T/C: 41.7%
[31]
  viability, T/C: 37.4%
[32]
  viability, T/C: 34.3%
[33]
  viability, T/C: 0.82%
[34]
  viability, T/C: 0.12%
[35]
  viability, T/C: 0.16%

## O=C(c1cc(Cc2n[nH]c(=O)c3ccccc23)ccc1F)N1CCN(C(=O)C2CC2)CC1 + Cc1ccccc1N=Nc1ccc(NC(=O)c2ccnn2C)c(C)c1
[1]
  IC50: > 10 µM
[2]
  IC50: > 10 µM
[3]
  IC50: > 10 µM
[4]
  IC50: > 10 µM
[5]
  IC50: > 10 µM
[6]
  viability, T/C: 88.7%
[7]
  viability, T/C: 90.9%
[8]
  viability, T/C: 98.7%
[9]
  viability, T/C: 84.3%
[10]
  viability, T/C: 84.1%
[11]
  viability, T/C: 81%
[12]
  viability, T/C: 84.7%
[13]
  viability, T/C: 82.1%
[14]
  viability, T/C: 76.5%
[15]
  viability, T/C: 86.5%
[16]
  viability, T/C: 74.8%
[17]
  viability, T/C: 85.4%
[18]
  viability, T/C: 89%
[19]
  viability, T/C: 83.2%
[20]
  viability, T/C: 87.2%
[21]
  viability, T/C: 80.7%
[22]
  viability, T/C: 80.7%
[23]
  viability, T/C: 71%
[24]
  viability, T/C: 82.8%
[25]
  viability, T/C: 85.6%
[26]
  viability, T/C: 86.8%
[27]
  viability, T/C: 75.2%
[28]
  viability, T/C: 71.3%
[29]
  viability, T/C: 73.9%
[30]
  viability, T/C: 82.3%
[31]
  viability, T/C: 76.8%
[32]
  viability, T/C: 78.9%
[33]
  viability, T/C: 70.6%
[34]
  viability, T/C: 65.9%
[35]
  viability, T/C: 64.4%

## COc1cc(Nc2ncc3c(n2)-c2ccc(Cl)cc2C(c2c(F)cccc2OC)=NC3)ccc1C(=O)O + Cc1cncc(-c2nc(NCCc3c[nH]c4ccccc34)c3ncn(C(C)C)c3n2)c1
[1]
  IC50: > 10 µM
[2]
  IC50: > 10 µM
[3]
  IC50: > 10 µM
[4]
  IC50: > 10 µM
[5]
  IC50: > 10 µM
[6]
  viability, T/C: 83.8%
[7]
  viability, T/C: 86.9%
[8]
  viability, T/C: 81.7%
[9]
  viability, T/C: 72.5%
[10]
  viability, T/C: 73.8%
[11]
  viability, T/C: 61.5%
[12]
  viability, T/C: 86.3%
[13]
  viability, T/C: 83.1%
[14]
  viability, T/C: 81.7%
[15]
  viability, T/C: 72.2%
[16]
  viability, T/C: 73.6%
[17]
  viability, T/C: 65.5%
[18]
  viability, T/C: 91.8%
[19]
  viability, T/C: 88.6%
[20]
  viability, T/C: 75.3%
[21]
  viability, T/C: 82.8%
[22]
  viability, T/C: 80%
[23]
  viability, T/C: 70.8%
[24]
  viability, T/C: 92.2%
[25]
  viability, T/C: 98%
[26]
  viability, T/C: 102%
[27]
  viability, T/C: 81.8%
[28]
  viability, T/C: 81.2%
[29]
  viability, T/C: 72.7%
[30]
  viability, T/C: 54.4%
[31]
  viability, T/C: 55%
[32]
  viability, T/C: 53.1%
[33]
  viability, T/C: 51.4%
[34]
  viability, T/C: 56.4%
[35]
  viability, T/C: 71.2%

## Nc1ccccc1NC(=O)c1ccc(CNC(=O)OCc2cccnc2)cc1 + CC(CO)NC(=O)c1cc(-c2ccc(Cl)cc2)nn(-c2cnn(C)c2)c1=O
[1]
  IC50: 2.92 µM
[2]
  IC50: 4.73 µM
[3]
  IC50: 3.32 µM
[4]
  IC50: 4.38 µM
[5]
  IC50: 3.9 µM
[6]
  viability, T/C: 79.3%
[7]
  viability, T/C: 101%
[8]
  viability, T/C: 90.8%
[9]
  viability, T/C: 78.8%
[10]
  viability, T/C: 48.2%
[11]
  viability, T/C: 20.5%
[12]
  viability, T/C: 76.8%
[13]
  viability, T/C: 86.9%
[14]
  viability, T/C: 113%
[15]
  viability, T/C: 83%
[16]
  viability, T/C: 68.3%
[17]
  viability, T/C: 16.8%
[18]
  viability, T/C: 92.8%
[19]
  viability, T/C: 87.2%
[20]
  viability, T/C: 110%
[21]
  viability, T/C: 97.5%
[22]
  viability, T/C: 51.4%
[23]
  viability, T/C: 18.7%
[24]
  viability, T/C: 73.6%
[25]
  viability, T/C: 66.8%
[26]
  viability, T/C: 88%
[27]
  viability, T/C: 105%
[28]
  viability, T/C: 61.2%
[29]
  viability, T/C: 21.8%
[30]
  viability, T/C: 110%
[31]
  viability, T/C: 114%
[32]
  viability, T/C: 104%
[33]
  viability, T/C: 84.1%
[34]
  viability, T/C: 61.1%
[35]
  viability, T/C: 8.65%

## O=C(C=Cn1cnc(-c2cc(C(F)(F)F)cc(C(F)(F)F)c2)n1)NNc1cnccn1
Compound 0.00949 µM
  viability, T/C: 89.8% and 81.2% and 74.5%
Compound 0.03 µM
  viability, T/C: 88.8% and 78.5% and 89%
Compound 0.0949 µM
  viability, T/C: 67.4% and 63% and 65.5%
Compound 0.3 µM
  viability, T/C: 56.7% and 51.7% and 68.9%
Compound 0.949 µM
  viability, T/C: 45.9% and 42.6% and 45.6%
Compound 3 µM
  viability, T/C: 28.2% and 30.1% and 35.2%
Curve of compound
  IC50: 0.552 µM and 0.386 µM and 0.803 µM
